Read-outs that look alike come from different tables or passages of the source.
Tests used:
SVR cells = assay: apoptosis of SVR cells; format: cell-based; settings: 18 and 48 h
Description: FIG. 13 illustrates the effect of honokiol and magnolol on apoptosis. The light columns represent SVR cells treated with magnolol, and the dark columns represent SVR cells treated with honokiol. The control lanes represent cells immediately after treatment compared with 18 and 48 h of treatment.

MM.1S cells [1] = assay: combination with bortezomib; format: cell-based, human
Description: (§1) Assessment of HNK-induced cytotoxicity against patient MM cells: Cytotoxicity of HNK against fresh MM cells was determined as previously determined, see, for example, Mitsiades et al Cancer Cell. 2004; 5:221-230. Fresh MNCs separated from bone marrow samples derived from patients with MM were incubated with PE-conjugated anti-CD138 antibody and/or FITC-conjugated anti-CD38 antibody (BD Biosciences, San Diego, Calif.) for 30 minutes on ice and washed, followed by analysis using EPICS XL flow cytometer (Beckman Coulter, Hialeah, Fla.). A CD38^high fraction enriched for MM cells was determined in side and forward scatter panel in each case. The expression of CD138 on gated cells was also evaluated. After HNK-treatment for 48 h, cells were harvested and percentage of CD38^high cells with or without HNK-treatment was evaluated. […] Cells were stained with propidium iodide (PI; 50 μg/mL; Sigma, St Louis, Mo.), and cell cycle profile was determined by using the program M software on an EPICS XL flow cytometer (Beckman Coulter, Hialeah, Fla.). […] Fluorescence intensity of TUNEL and APO 2.7 staining was determined using on EPICS XL flow cytometer. Cytotoxicity was determined by trypan blue exclusion assay. […] Cell growth and induction of apoptosis were determined both by colorimetric assay and now cytometric detection of APO2.7 after 48 h treatment. […] DNA synthesis was measured by [^3H]-thymidine uptake. […]

H1299 cells = assay: Invasion assay (Matrigel); format: cell-based, human
Description: (A) RAW 264.7 cells (1×10^4) were plated overnight, pretreated with 5 mM honokiol for 12 h, and then treated with 5 nM RANKL. At 4 and 5 days later, cells were stained for TRAP and evaluated for osteoclastogenesis. Photographs were taken after 5 days of incubation with RANKL. (B) The numbers of TRAP-positive multinucleated osteoclasts (>3 nuclei) per well were counted. (C) H1299 cells (2.5×10^4) were seeded into the upper wells of a Matrigel invasion chamber overnight in the absence of serum, pretreated with […] honokiol for 12 h, treated with 1 nM TNF for 24 h in the presence of 1% serum, and then subjected to invasion assay. The value for no honokiol and no TNF was set to 1.0.
Invasion assay. The membrane invasion culture system was used to assess cell invasion because invasion through the extracellular matrix is a crucial step in tumor metastasis. […] The cells that invaded through the Matrigel (i.e., those that migrated to the lower chamber during incubation) were stained with […] calcein-AM (Molecular Probes) in PBS for 30 min at 37° C. and scanned for fluorescence with a Victor 3 multi-plate reader (Perkin Elmer Life and Analytical Sciences, Boston, Mass.); fluorescent cells were counted. […]

MM.1S cells [2] = assay: cells; format: cell-based; settings: Homo sapiens, MM1.S, read-out: percentage of nonviable cells by trypan blue exclusion
Description: as §1

In the case of C=CCc1ccc(O)c(-c2ccc(O)c(CC=C)c2)c1 [HNK, Honokiol], the “induction of apoptosis compared with magnolol” value (SVR cells) is reported as “more effective in the induction of apoptosis than magnolol”, the “Bortezomib-induced up-regulation of Hsp27, p-Hsp27 and Hsp70” value (MM.1S cells [1]; 8 h, Western blotting) is reported as “significantly blocked” and the “cytotoxicity and apoptosis of combined treatment with bortezomib” value (MM.1S cells [1]; HNK and bortezomib, 48 h) is reported as “enhanced the cytotoxicity and induction of apoptosis compared to each drug alone”. For the same molecule, the “TNF-induced tumor cell invasion” value (H1299 cells; H1299, 10 mM (printed) honokiol 12 h, 1 nM TNF 24 h) was “suppressed this activity”, the “invasion activity of honokiol alone” value (H1299 cells; H1299, no TNF) was “had no invasion activity” and the cytotoxicity at 10 µg/mL (MM.1S cells [2]; 24 h) was 30.7 ± 5.5%. The cytotoxicity at 10 µg/mL (MM.1S cells [2]) was 27.6 ± 6.4%.
